Experimental data as given in article PMC11963564 (Antimicrobial Agents and Chemotherapy, 2025).
Where two headings read alike, the source gives them in different places.

Experiments:
SARS-CoV-2 Omicron BA.1 = assay: microbe, parasite or virus in culture; format: cell-based
SARS-CoV-2 Omicron EG.5 = assay: microbe, parasite or virus in culture; format: cell-based
[1] = system: SARS-CoV-2 Omicron XBB.1.16; assay: microbe, parasite or virus in culture; format: cell-based
[2] = system: SARS-CoV-2 Omicron XBB.1.5; assay: microbe, parasite or virus in culture; format: cell-based
[3] = system: SARS-CoV-2 Omicron CH.1.1; assay: microbe, parasite or virus in culture; format: cell-based
SARS-CoV-2 Omicron JN.1 = assay: microbe, parasite or virus in culture; format: cell-based
SARS-CoV-2 Omicron BA.5 = assay: microbe, parasite or virus in culture; format: cell-based
SARS-CoV-2 Omicron BA.4 = assay: microbe, parasite or virus in culture; format: cell-based
SARS-CoV-2 Delta = settings: cited from earlier work
SARS-CoV-2 WIV04 = settings: cited from earlier work
[4] = Severe acute respiratory syndrome coronavirus 2, Vero C1008, 48 h
[5] = Severe acute respiratory syndrome coronavirus 2, Vero C1008, 72 h

For `CC(C)(C)[C@H](NC(=O)C(F)(F)F)C(=O)N1C[C@H]2[C@@H]([C@H]1C(=O)N[C@H](C#N)C[C@@H]1CCNC1=O)C2(C)C` [nirmatrelvir, reference compound], the IC50 (SARS-CoV-2 Omicron BA.1; [4]) was 57 ± 12 nM, the IC90 (SARS-CoV-2 Omicron BA.1; [4]) was 142 ± 61 nM and the IC50 (SARS-CoV-2 Omicron EG.5; [5]) was 98 ± 26 nM. For the same compound, the IC90 (SARS-CoV-2 Omicron EG.5; [5]) was 617 ± 170 nM, the IC50 [1, 5] was 101 ± 23 nM and the IC90 [1, 5] was 262 ± 140 nM. It also gave an IC50 [2, 4] of 22 ± 14 nM, an IC90 [2, 4] of 84 ± 39 nM and an IC50 [3, 4] of 26 ± 21 nM. It also gave an IC90 [3, 4] of 59 ± 26 nM, an IC50 (SARS-CoV-2 Omicron JN.1; [5]) of 98 ± 27 nM and an IC90 (SARS-CoV-2 Omicron JN.1; [5]) of 469 ± 183 nM. For the same compound, the IC50 (SARS-CoV-2 Omicron BA.5; [4]) was 90 ± 38 nM, the IC90 (SARS-CoV-2 Omicron BA.5; [4]) was 341 ± 140 nM and the IC50 (SARS-CoV-2 Omicron BA.4; [4]) was 72 ± 13 nM. The IC90 (SARS-CoV-2 Omicron BA.4; [4]) was 157 ± 77 nM.
Work on simnotrelvir yielded an IC50 (SARS-CoV-2 Omicron BA.1; read-out: IC50) of 148 ± 62 nM, an IC90 (SARS-CoV-2 Omicron BA.1; read-out: IC90) of 267 ± 82 nM and an IC50 (SARS-CoV-2 Omicron EG.5; read-out: IC50) of 174 ± 97 nM. For the same compound, the IC90 (SARS-CoV-2 Omicron EG.5; read-out: IC90) was 803 ± 236 nM, the IC50 ([1]; read-out: IC50) was 130 ± 20 nM and the IC90 ([1]; read-out: IC90) was 230 ± 93 nM. It also gave an IC50 ([2]; read-out: IC50) of 82 ± 58 nM, an IC90 ([2]; read-out: IC90) of 254 ± 111 nM and an IC50 ([3]; read-out: IC50) of 65 ± 6 nM. The IC90 ([3]; read-out: IC90) was 99 ± 52 nM, the IC50 (SARS-CoV-2 Omicron JN.1; read-out: IC50) was 124 ± 31 nM and the IC90 (SARS-CoV-2 Omicron JN.1; read-out: IC90) was 684 ± 188 nM. The IC50 (SARS-CoV-2 Delta) was 34 nM, the IC50 (SARS-CoV-2 Omicron BA.5; read-out: IC50) was 208 ± 55 nM and the IC90 (SARS-CoV-2 Omicron BA.5; read-out: IC90) was 449 ± 171 nM. The IC50 (SARS-CoV-2 Omicron BA.4; read-out: IC50) was 189 ± 6 nM, the IC90 (SARS-CoV-2 Omicron BA.4; read-out: IC90) was 250 ± 67 nM and the IC50 (SARS-CoV-2 WIV04) was 26 nM.
